Laboratory results reported in the NIST ThermoML archive (doi:10.1016/j.tca.2004.07.014).

Assays:
[1] = 303.15 K, 101.3 kPa, Liquid; for speed of sound: Linear variable-path acoustic interferometer
[2] = xn = mol fraction of the nth substance listed; settings: 303.15 K, 101.3 kPa, Liquid; for speed of sound: Linear variable-path acoustic interferometer

CCOC(=O)CC(=O)OCC [diethyl 1,3-propanedioate]
[1]
Settings	mass density [kg/m3]	speed of sound [m/s]
–	1043.23	1274

Settings	viscosity [mPa·s]
[1], Capillary tube (Ostwald / Ubbelohde) method	1.721

CCOC(=O)CC(=O)OCC [diethyl 1,3-propanedioate] + ClC(Cl)(Cl)Cl
[2]
Settings	mass density [kg/m3]	speed of sound [m/s]	viscosity [mPa·s]
x1 = 0.1173	1480.36	949	0.857
x1 = 0.2031	1419.02	982	0.877
x1 = 0.2999	1356.61	1018	0.918
x1 = 0.4623	1265.6	1080	1.002
x1 = 0.5648	1215.59	1120	1.084
x1 = 0.6579	1174.08	1154	1.167
x1 = 0.7478	1136.91	1185	1.272
x1 = 0.8311	1104.69	1216	1.388
x1 = 0.9189	1072.19	1247	1.544
x1 = 1	1043.23	1274	1.721

CCOC(=O)CC(=O)OCC [diethyl 1,3-propanedioate] + ClC(Cl)Cl
[2]
Settings	mass density [kg/m3]	speed of sound [m/s]	viscosity [mPa·s]
x1 = 0.0968	1399.36	999	0.533
x1 = 0.2004	1334.53	1031	0.568
x1 = 0.3089	1276.4	1065	0.622
x1 = 0.4122	1228.62	1097	0.692
x1 = 0.5385	1178.25	1136	0.808
x1 = 0.6125	1151.99	1159	0.891
x1 = 0.7225	1116.7	1192	1.05
x1 = 0.8156	1089.85	1220	1.226
x1 = 0.9071	1065.78	1246	1.444

CCOC(=O)C(Br)C(=O)OCC [diethyl bromomalonate]
[1]
Settings	mass density [kg/m3]	speed of sound [m/s]
–	1399.18	1166

Settings	viscosity [mPa·s]
[1], Capillary tube (Ostwald / Ubbelohde) method	3.614

CCOC(=O)C(Br)C(=O)OCC [diethyl bromomalonate] + ClC(Cl)(Cl)Cl
[2]
Settings	mass density [kg/m3]	speed of sound [m/s]	viscosity [mPa·s]
x1 = 0.1001	1552.35	944	1.012
x1 = 0.1992	1531.61	980	1.207
x1 = 0.3007	1512.21	1012	1.433
x1 = 0.4088	1492.99	1047	1.705
x1 = 0.4988	1478.09	1072	1.948
x1 = 0.5999	1462.1	1098	2.255
x1 = 0.699	1446.77	1121	2.571
x1 = 0.8988	1415.72	1155	3.25
x1 = 1	1399.18	1166	3.614

CCOC(=O)C(Br)C(=O)OCC [diethyl bromomalonate] + ClC(Cl)Cl
[2]
Settings	mass density [kg/m3]	speed of sound [m/s]	viscosity [mPa·s]
x1 = 0.098	1460.41	989	0.709
x1 = 0.1971	1450.47	1010	0.941
x1 = 0.296	1441.28	1032	1.2
x1 = 0.4033	1432.36	1054	1.507
x1 = 0.5045	1424.91	1075	1.84
x1 = 0.5919	1419.12	1092	2.141
x1 = 0.6911	1413.32	1112	2.501
x1 = 0.7991	1407.82	1131	2.899
x1 = 0.8997	1403.21	1149	3.253

CCOC(=O)CCl [ethyl chloroethanoate]
[1]
Settings	mass density [kg/m3]	speed of sound [m/s]	viscosity [mPa·s]
–	1139.18	1227	1.275

CCOC(=O)CCl [ethyl chloroethanoate] + ClC(Cl)(Cl)Cl
[2]
Settings	mass density [kg/m3]	speed of sound [m/s]	viscosity [mPa·s]
x1 = 0.095	1530.01	933	0.853
x1 = 0.1992	1481.59	964	0.862
x1 = 0.298	1436.61	994	0.862
x1 = 0.3972	1392.26	1025	0.87
x1 = 0.5	1347.02	1058	0.891
x1 = 0.5978	1304.82	1089	0.928
x1 = 0.6984	1262.23	1123	0.967
x1 = 0.8044	1218.14	1158	1.021
x1 = 0.8978	1180.11	1191	1.113
x1 = 1	1139.18	1227	1.275

CCOC(=O)CCl [ethyl chloroethanoate] + ClC(Cl)Cl
[2]
Settings	mass density [kg/m3]	speed of sound [m/s]	viscosity [mPa·s]
x1 = 0.0989	1429.89	990	0.617
x1 = 0.1945	1392.15	1014	0.687
x1 = 0.2954	1354.22	1038	0.759
x1 = 0.3905	1320.14	1062	0.806
x1 = 0.5048	1281.24	1091	0.852
x1 = 0.6012	1250.32	1115	0.9
x1 = 0.6875	1223.93	1137	0.943
x1 = 0.7658	1201.01	1159	0.989
x1 = 0.8992	1164.5	1198	1.114

ClC(Cl)(Cl)Cl [tetrachloromethane]
[1]
Settings	mass density [kg/m3]	speed of sound [m/s]	viscosity [mPa·s]
–	1574.82	905	0.844

ClC(Cl)(Cl)Cl [tetrachloromethane] + CCOC(=O)CCl
[2], x2 = 0
Settings	mass density [kg/m3]	speed of sound [m/s]	viscosity [mPa·s]
–	1574.82	905	0.844

ClC(Cl)Cl [trichloromethane]
[1]
Settings	mass density [kg/m3]	speed of sound [m/s]
–	1470.59	967

Settings	viscosity [mPa·s]
[1], Capillary tube (Ostwald / Ubbelohde) method	0.512

ClC(Cl)Cl [trichloromethane] + CCOC(=O)CCl
[2], x2 = 0
Settings	mass density [kg/m3]	speed of sound [m/s]	viscosity [mPa·s]
–	1470.59	967	0.512
